According to patent US4965273A, “Certain 1-tertiary-butyl-naphthyridone carboxylic acid derivatives anti-bacterial agents” (priority 1988, dated 1990):
Converted amounts (≈) assume the structure as drawn. Blank lines part the entries; values can stand above or below the molecule they belong to.

How the values were obtained:
Streptococcus faecalis = assay: Minimum inhibitory concentration (MIC), microtitration dilution method of Heifetz et al.; type: cell-based
Method: (§1) The compounds of this invention display antibacterial activity when tested by the microtitration dilution method reported by Heifetz et al., Antimicr. Agents & Chemoth., 6. 124 (1974). Minimum inhibitory concentrations (MICs, in μg/ml) for but a few representative compounds according to this invention were determined by the above-mentioned method.

Enterobacter cloacae = assay: as above; type: cell-based; parameters: unit not given here; conditions: Table 2
Escherichia coli = assay: as above; type: cell-based; conditions: Table 2
Method: as §1

Streptococcus faecium = assay: as above; type: cell-based; conditions: Table 2
Method: as §1

Staphylococcus aureus = assay: as above; type: cell-based; conditions: Table 2
Method: as §1

Klebsiella oxytoca = assay: as above; type: cell-based; conditions: Table 2
Method: as §1

Pseudomonas aeruginosa = assay: as above; type: cell-based; conditions: Table 2
Method: as §1

[1] = from Tables 2, 3 and 4

SMILES: O=C(O)c1cn(C2CC2)c2cc(N3CCNCC3)c(F)cc2c1=O [Cip., 1-cyclopropyl-6-fluoro-1,4-dihydro-7-(1-piperazinyl)-4-oxo-quinoline-3-carboxylic acid, reference compound]
- MIC (Streptococcus faecalis; Enterococcus faecalis, read-out: MIC S. faecal.): 0.5 µg/mL (≈ 1.51 µM)

- MIC E. clo. (Enterobacter cloacae): 0.06
- MIC E. coli (Escherichia coli): 0.13 µg/mL (≈ 0.347 µM)
- MIC S. faeci. (Streptococcus faecium): 2.0 µg/mL (≈ 5.34 µM)
- MIC S. aur. (Staphylococcus aureus): 0.03 µg/mL (≈ 0.0801 µM)
- MIC S. faecal. (Streptococcus faecalis; Table 2, Streptococcus faecalis): 0.5 µg/mL (≈ 1.34 µM)
- MIC K. oxyto. (Klebsiella oxytoca): 0.5 µg/mL (≈ 1.34 µM)
- MIC P. aer. (Pseudomonas aeruginosa): 1.0 µg/mL (≈ 2.67 µM)
SMILES: CC(C)(C)n1cc(C(=O)O)c(=O)c2cc(F)c(N3C[C@@H]4CC[C@H]3CN4)nc21 [Example 23, 7-(1S,4S-2,5-diazabicyclo[2.2.2]octan-2-yl)-1-(1,1-dimethylethyl)-1,4-dihydro-6-fluoro-4-oxo-1,8-naphthyridine-3-carboxylic acid]

SMILES: CC(C)(C)n1cc(C(=O)O)c(=O)c2cc(F)c(N3C[C@H]4C[C@@H]3CN4)nc21 [Example 30, 7-(1R,4R-2,5-diazabicyclo[2.2.1]heptan-2-yl)-1-(1,1-dimethylethyl)-1,4-dihydro-6-fluoro-4-oxo-1,8-naphthyridine-3-carboxylic acid]
- combination of anti-bacterial, toxicity, and water-solubility properties [1]: highly advantageous combination of the above mentioned properties
